Source: the supplement of paper PMC10307832

Assays:
Experiment in all cases: relative viability (nuclei count vs DMSO), 5 days (fraction); higher = more cells survive
Tivantinib + Dasatinib = compound: O=C1NC(=O)[C@@H](c2cn3c4c(cccc24)CCC3)[C@@H]1c1c[nH]c2ccccc12 [Tivantinib] + Cc1nc(Nc2ncc(C(=O)Nc3c(C)cccc3Cl)s2)cc(N2CCN(CCO)CC2)n1 [Dasatinib] (partner 0.075 µM)
Summary of the method: (§1)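 Nuclei were stained with Hoechst during a one-step fixation (final 0.05% Triton X-100, 1% formaldehyde, 1 ug/ml Hoechst) carried out 5 days after dosing, then counted on 4× images. The cells, lung cancer lines in 1536-well plates, had been dosed by pin tool the day after seeding with one drug alone or a fixed anchor-drug dose plus five library-drug doses (not always all listed) in √10 steps. Relative viability is the nuclei count in treated wells divided by that in vehicle wells, and each value is the median of duplicate plates.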

Crenolanib + Decitabine = compound: CC1(COc2ccc3c(c2)ncn3-c2ccc3cccc(N4CCC(N)CC4)c3n2)COC1 [Crenolanib] + Nc1ncn([C@H]2C[C@H](O)[C@@H](CO)O2)c(=O)n1 [Decitabine] (partner 2 µM)
Summary of the method: as §1

Tivantinib + Luminespib = compound: O=C1NC(=O)[C@@H](c2cn3c4c(cccc24)CCC3)[C@@H]1c1c[nH]c2ccccc12 [Tivantinib] + CCNC(=O)c1noc(-c2cc(C(C)C)c(O)cc2O)c1-c1ccc(CN2CCOCC2)cc1 [Luminespib] (partner 0.01 µM)
Summary of the method: as §1

Crenolanib + Bortezomib = compound: CC1(COc2ccc3c(c2)ncn3-c2ccc3cccc(N4CCC(N)CC4)c3n2)COC1 [Crenolanib] + CC(C)C[C@H](NC(=O)[C@H](Cc1ccccc1)NC(=O)c1cnccn1)B(O)O [Bortezomib] (partner 0.002 µM)
Summary of the method: as §1

Cell Line	relative viability (Tivantinib + Dasatinib; first compound 0.01 µM)	relative viability (Tivantinib + Dasatinib; first compound 0.03162 µM)	relative viability (Tivantinib + Dasatinib; first compound 0.1 µM)	relative viability (Tivantinib + Dasatinib; first compound 0.3162 µM)	relative viability (Crenolanib + Decitabine; first compound 0.01 µM)	relative viability (Crenolanib + Decitabine; first compound 0.03162 µM)	relative viability (Crenolanib + Decitabine; first compound 0.1 µM)	relative viability (Crenolanib + Decitabine; first compound 0.3162 µM)	relative viability (Crenolanib + Decitabine; first compound 1 µM)	relative viability (Tivantinib + Luminespib; first compound 0.01 µM)	relative viability (Tivantinib + Luminespib; first compound 0.03162 µM)	relative viability (Tivantinib + Luminespib; first compound 0.1 µM)	relative viability (Tivantinib + Luminespib; first compound 0.3162 µM)	relative viability (Crenolanib + Bortezomib; first compound 0.01 µM)	relative viability (Crenolanib + Bortezomib; first compound 0.03162 µM)	relative viability (Crenolanib + Bortezomib; first compound 0.1 µM)	relative viability (Crenolanib + Bortezomib; first compound 0.3162 µM)	relative viability (Crenolanib + Bortezomib; first compound 1 µM)
NCI-H520	0.204	0.185	0.193	0.221	0.54	0.492	0.451	0.575	0.481	0.212	0.218	0.209	0.198	0.481	0.528	0.824	0.779	0.628
NCI-H596	0.486	0.543	0.635	0.619	1.09	0.991	0.933	1.05	1.03	1.01	1.01	1.08	0.935	0.929	1.07	0.998	0.981	1.17
NCI-H647	0.188	0.194	0.149	0.195	0.376	0.401	0.362	0.502	0.346	0.155	0.141	0.14	0.135	1.03	0.94	0.974	1.16	0.888
NCI-H650	0.504	0.359	0.461	0.527	0.295	0.306	0.281	0.295	0.33	0.895	0.798	0.739	0.432	0.944	0.767	0.769	0.855	0.68
NCI-H661	0.884	0.869	0.736	0.4	0.534	0.514	0.544	0.555	0.541	0.936	0.93	0.954	0.799	0.807	0.853	0.851	0.831	0.745
NCI-H727	0.529	0.344	0.306	0.275	0.872	0.851	0.877	0.997	0.904	0.334	0.37	0.514	0.253	0.905	0.92	0.821	0.869	0.991
NCI-H838	0.324	0.296	0.274	0.276	0.482	0.463	0.45	0.466	0.418	0.276	0.308	0.302	0.335	0.774	0.796	0.984	0.77	0.566
NCI-H1355	0.666	0.668	0.675	0.564	0.374	0.335	0.303	0.407	0.328	0.787	0.687	0.726	0.723	1.33	1.15	1.3	1.37	0.951
NCI-H1437	0.427	0.334	0.429	0.376	0.634	0.551	0.527	0.562	0.512	1.13	1.15	1.1	1.06	0.48	0.408	0.557	0.515	0.526
